Values after ≈ are worked out from the molar mass of the structure shown.
Legend:
Calf thymus DNA [1] = assay: Binding affinity to calf thymus DNA assessed as fluorescence quenching at pH 5 by fluorimetric titration; format: nucleic-acid assay; details: Bos taurus
Calf thymus DNA [2] = assay: Binding affinity to calf thymus DNA assessed as fluorescence quenching at pH 7 by fluorimetric titration; format: nucleic-acid assay; details: Bos taurus
Calf thymus DNA [3] = assay: Binding affinity to calf thymus DNA assessed as change in melting temperature in citric acid/NaOH buffer ayt pH 5 at [compound]/[DNA] ratio of 0.3 by tangent method; format: nucleic-acid assay; details: Bos taurus
Calf thymus DNA [4] = assay: Binding affinity to calf thymus DNA assessed as change in melting temperature in citric acid/NaOH buffer ayt pH 5 at [compound]/[DNA] ratio of 0.2 by tangent method; format: nucleic-acid assay; details: Bos taurus
[5] = Solubility in water; format: physicochemical
Calf thymus DNA [6] = assay: Binding affinity to calf thymus DNA assessed as change in melting temperature in citric acid/NaOH buffer ayt pH 5 at [compound]/[DNA] ratio of 0.1 by tangent method; format: nucleic-acid assay; details: Bos taurus
MCF7 = assay: Cytotoxicity against human MCF7 cells after 72 hrs by MTT assay; format: functional, cell-based; details: MCF7, 72 h
NCI-H460 = assay: Cytotoxicity against human H460 cells after 72 hrs by MTT assay; format: functional, cell-based; details: NCI-H460, 72 h
MIA PaCa-2 = assay: Cytotoxicity against human MIAPaCa2 cells after 72 hrs by MTT assay; format: functional, cell-based; details: MIA PaCa-2, 72 h
SW-620 = assay: Cytotoxicity against human SW620 cells after 72 hrs by MTT assay; format: functional, cell-based; details: SW-620, 72 h
HeLa = assay: Cytotoxicity against human HeLa cells after 72 hrs by MTT assay; format: functional, cell-based

log Ks (Calf thymus DNA [1]) | log Ks (Calf thymus DNA [2]) | ΔTm (Calf thymus DNA [3]) | ΔTm (Calf thymus DNA [4]) | solubility [5] | ΔTm (Calf thymus DNA [6]) | Structure (SMILES) | IC50 (MCF7) | IC50 (NCI-H460) | IC50 (MIA PaCa-2) | IC50 (SW-620) | IC50 (HeLa)
5.5 | 4.7 | 11.1 °C | 8.1 °C | 1000 µM (≈ 337 µg/mL) | 6.5 °C | Cc1nc2ccccc2c2ccc(C[C@H](NC(=O)CN)C(=O)O)cc12 |  |  |  |  | 
6.7 |  | 11.3 °C | 11 °C | 1000 µM (≈ 543 µg/mL) | 8.6 °C | Cc1nc2ccccc2c2ccc(C[C@H](NC(=O)[C@@H](N)Cc3ccc4c(c3)c(C)nc3ccccc34)C(=O)O)cc12 |  |  |  |  | 
 |  | 4 °C |  | 1000 µM (≈ 280 µg/mL) |  | Cc1nc2ccccc2c2ccc(C[C@H](N)C(=O)O)cc12 | > 100 µM | > 100 µM | > 100 µM | > 100 µM | > 100 µM
 |  | 18.4 °C | 16.5 °C | 1000 µM (≈ 600 µg/mL) | 14.3 °C | Cc1nc2ccccc2c2ccc(C[C@H](NC(=O)CNC(=O)[C@@H](N)Cc3ccc4c(c3)c(C)nc3ccccc34)C(=O)O)cc12 | > 100 µM | > 100 µM | > 100 µM | > 100 µM | > 100 µM
